Reference: patent publication US9085598B2, “Compounds targeting the cell invasion protein complex, their pharmaceutical compositions and methods of use thereof” (THE ROYAL INSTITUTE FOR THE ADVANCEMENT OF LEARNING/MCGILL …, priority 2011, dated 2015)
Like-named read-outs stand apart in the source and are kept apart here.

Key:
MDA-231 cells = test: Inhibition of cell proliferation, MTT metabolic assay; format: cell-based; conditions: 96 hours continuous treatment, read-out: MDA231- IC50
Description: (§1) Exponentially growing DU145 or MDA-231 cells (1×10^3 cells) were seeded in 96-well plates. The final concentration of DMSO was less than 0.05%. After 96 hours, the cell survival was evaluated using 3-(4,5-dimethylthiazo-2-yl)-2,5-diphenyltetrazolium bromide (MTT) metabolic assay.

FAK = target: T1, FAK (Homo sapiens, UniProt Q05397); test: In vitro kinase activity (Kinase-Glo luminescence); format: biochemical; conditions: for inhibition at 1 µM: read-out: FAK inhibition (% at 1 μM); for FAK inhibition (% at 1 μM): Table 1
T1 construct: Human recombinant full-length kinases were incubated in kinase buffer
T1 sequence (Q05397 whole entry): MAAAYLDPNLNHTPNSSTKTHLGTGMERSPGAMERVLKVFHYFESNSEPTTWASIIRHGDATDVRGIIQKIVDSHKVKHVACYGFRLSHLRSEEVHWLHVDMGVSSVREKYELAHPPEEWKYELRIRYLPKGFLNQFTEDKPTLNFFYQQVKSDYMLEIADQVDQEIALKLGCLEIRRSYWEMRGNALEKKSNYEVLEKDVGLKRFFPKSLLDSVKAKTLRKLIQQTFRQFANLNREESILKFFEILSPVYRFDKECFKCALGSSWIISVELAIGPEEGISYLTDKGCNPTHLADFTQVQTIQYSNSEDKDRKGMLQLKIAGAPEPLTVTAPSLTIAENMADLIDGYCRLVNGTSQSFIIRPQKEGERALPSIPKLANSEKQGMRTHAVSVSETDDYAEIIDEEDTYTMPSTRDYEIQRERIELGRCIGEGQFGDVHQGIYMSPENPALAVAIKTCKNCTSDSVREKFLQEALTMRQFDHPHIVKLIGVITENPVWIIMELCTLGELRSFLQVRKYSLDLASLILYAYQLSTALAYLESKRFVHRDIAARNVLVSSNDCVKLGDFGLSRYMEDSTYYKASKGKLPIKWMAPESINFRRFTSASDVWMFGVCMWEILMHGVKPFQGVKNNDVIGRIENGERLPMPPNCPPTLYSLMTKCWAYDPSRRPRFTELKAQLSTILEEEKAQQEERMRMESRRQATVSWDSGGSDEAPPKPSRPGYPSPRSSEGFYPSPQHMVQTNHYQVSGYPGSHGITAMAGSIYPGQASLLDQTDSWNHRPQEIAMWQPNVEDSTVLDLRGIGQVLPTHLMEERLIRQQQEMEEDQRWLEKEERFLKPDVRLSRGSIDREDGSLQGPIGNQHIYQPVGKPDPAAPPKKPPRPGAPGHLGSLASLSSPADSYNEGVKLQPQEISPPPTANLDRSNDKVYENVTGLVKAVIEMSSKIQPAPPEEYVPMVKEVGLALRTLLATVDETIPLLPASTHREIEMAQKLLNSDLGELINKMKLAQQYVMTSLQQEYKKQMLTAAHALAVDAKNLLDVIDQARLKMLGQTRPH
Description: Human recombinant full-length kinases were incubated in kinase buffer containing ATP and substrate (Poly Glu:Tyr) for 4 hours at room temperature with or without the presence of the compounds listed in Table 1 at various concentrations. Remaining ATP in solution was then quantified using the Kinase-Glo-Iuminescence™ kit (Promega).

DU145 cells = test: Inhibition of cell proliferation, MTT metabolic assay; format: cell-based
Description: as §1, with “assay. The inhibitory activity (IC50) of the compounds on MDA-231 and DU145 cell proliferation was determined. The results are presented in Table 1 for a representative number of compounds.” for “assay.”

[1] = Homo sapiens, MDA-MB-231, MDA-231 cell proliferation
[2] = Homo sapiens, DU-145, 96 hours continuous treatment

Molecule	IC50 (MDA-231 cells; [1])	inhibition at 1 µM (FAK)	IC50 (DU145 cells; [2])	IC50 (MDA-231 cells; MDA-231 cell proliferation)	IC50 (DU145 cells; 96 hours continuous treatment)	FAK inhibition (% at 1 μM) (FAK)
CC(=O)OCC1O[C@@H](OC(=O)c2ccc(-n3[se]c4ccccc4c3=O)cc2)C(OC(C)=O)C(OC(C)=O)[C@H]1OC(C)=O (some centres unmarked) [Compound 29]	3.7 µM	11%				
CC(=O)OCC1O[C@@H](OC(=O)Cn2[se]c3ccccc3c2=O)C(OC(C)=O)C(OC(C)=O)[C@@H]1OC(C)=O (some centres unmarked) [Compound 17]	35 µM	51.9%	30.4 µM			
O=C(CCCn1[se]c2ccccc2c1=O)N[C@@H]1OC(CO)[C@@H](O[C@@H]2OC(CO)[C@H](O)C(O)C2O)C(O)C1O (some centres unmarked) [Compound 16]			39.7 µM			
CC(=O)OCC1O[C@@H](Oc2ccc(-n3[se]c4ccccc4c3=O)cc2)C(OC(C)=O)C(OC(C)=O)[C@@H]1OC(C)=O (some centres unmarked) [Compound 25]	11.4 µM	65%				
CC(=O)OCC1O[C@@H](NC(=O)CCCn2[se]c3ccccc3c2=O)C(OC(C)=O)C(OC(C)=O)[C@@H]1O[C@@H]1OC(COC(C)=O)[C@H](OC(C)=O)C(OC(C)=O)C1OC(C)=O (some centres unmarked) [Compound 15]			34.5 µM			
CC(=O)OC[C@H]1O[C@@H](n2[se]c3ccccc3c2=O)[C@H](OC(C)=O)[C@@H](OC(C)=O)[C@H]1OC(C)=O [Compound 2, 2-(1-deoxy-2,3,4,6-tetra-O-acetyl-β-D-galactopyranosyl)-1,2-benzisoselenazol-3(2H)-one]				> 100 µM	224 µM	
CC(=O)OCC1O[C@@H](NC(=O)c2ccc(-n3[se]c4ccccc4c3=O)cc2)C(OC(C)=O)C(OC(C)=O)[C@@H]1OC(C)=O (some centres unmarked) [Compound 21]	5.5 µM	54%				
O=C(Cn1[se]c2ccccc2c1=O)N[C@@H]1O[C@H](CO)[C@@H](O)[C@H](O)[C@H]1O [Compound 7, 2-(3-oxo-1,2-benzisoselenazol-2(3H)-yl)-N-(1-deoxy-β-D-glucopyranosyl)-acetamide]				52 µM	40.3 µM	8%
O=c1c2ccccc2[se]n1CCO[C@@H]1OC(CO)[C@@H](O)C(O)C1O (some centres unmarked) [Compound 18]	> 100 µM		125 µM			
CC(=O)OCC1O[C@@H](NC(=O)c2ccc(-n3[se]c4ccccc4c3=O)cc2)C(OC(C)=O)C(OC(C)=O)[C@@H]1O[C@@H]1OC(COC(C)=O)[C@H](OC(C)=O)C(OC(C)=O)C1OC(C)=O (some centres unmarked) [Compound 27]	6.8 µM	12%				
CC(=O)OCC1O[C@@H](NC(=O)c2ccc(-n3[se]c4ccccc4c3=O)cc2)C(OC(C)=O)C(OC(C)=O)[C@H]1OC(C)=O (some centres unmarked) [Compound 24]	15.3 µM	72%				
CC(=O)OCC1O[C@@H](n2[se]c3ccccc3c2=O)C(OC(C)=O)C(OC(C)=O)[C@@H]1OC(C)=O (some centres unmarked) [Compound 19]	5.2 µM		11.9 µM			
2-(4-(2,3,4,6-tetra-O-acetyl-β-D-glucopyranosyl)phenzyl)-1,2-benzisoselenazol-3(2H)-one [Compound 8]				24.6 µM	33.7 µM	12%
O=C(N[C@@H]1OC(CO)[C@H](O)C(O)C1O)c1ccc(-n2[se]c3ccccc3c2=O)cc1 (some centres unmarked) [Compound 23]	12.7 µM	32%				
CC(=O)OCC1O[C@@H](OC(=O)c2ccc(-n3[se]c4ccccc4c3=O)cc2)C(OC(C)=O)C(OC(C)=O)[C@@H]1OC(C)=O (some centres unmarked) [Compound 28]	4.3 µM	85%				
O=C(Cn1[se]c2ccccc2c1=O)N[C@@H]1OC(CO)[C@@H](O)C(O)C1O (some centres unmarked) [Compound 20]	550 µM	15%	395 µM			
(2,3,4,6-tetra-O-acetyl-β-D-glucopyranosyl)-4-(3-oxo-1,2-benzisoselenazol-2(3H)-yl)benzoate [Compound 10]				57.5 µM	30.6 µM	
O=C(OCC1O[C@@H](OC(=O)c2ccc(-n3[se]c4ccccc4c3=O)cc2)C(OC(=O)c2ccccc2)C(OC(=O)c2ccccc2)[C@@H]1OC(=O)c1ccccc1)c1ccccc1 (some centres unmarked) [Compound 31]	22.9 µM	8%				
2-(4-(β-D-glucopyranosyl)phenzyl)-1,2-benzisoselenazol-3(2H)-one [Compound 9]				380 µM	277 µM	4%
CC(=O)OC[C@H]1O[C@@H](NC(=O)Cn2[se]c3ccccc3c2=O)[C@H](OC(C)=O)[C@@H](OC(C)=O)[C@@H]1OC(C)=O [Compound 6, 2-(3-oxo-1,2-benzisoselenazol-2(3H)-yl)-N-(1-deoxy-2,3,4,6-tetra-O-acetyl-β-D-glucopyranosyl)-acetamide]				275 µM	145 µM	
O=C(N[C@@H]1OC(CO)[C@@H](O)C(O)C1O)c1ccc(-n2[se]c3ccccc3c2=O)cc1 (some centres unmarked) [Compound 22]	2.7 µM	60%				
O=c1c2ccccc2[se]n1-c1ccc(O[C@@H]2OC(CO)[C@@H](O)C(O)C2O)cc1 (some centres unmarked) [Compound 26]	4.4 µM	15%				
O=c1c2ccccc2[se]n1[C@@H]1O[C@H](CO)[C@H](O)[C@H](O)[C@H]1O [Compound 3, 2-(1-deoxy-β-D-galactopyranosyl)-1,2-benzisoselenazol-3(2H)-one]				21 µM	24.3 µM	
CC(=O)OCC1O[C@@H](OC(=O)c2ccc(-n3[se]c4ccccc4c3=O)cc2)C(OC(C)=O)C(OC(C)=O)[C@@H]1O[C@@H]1OC(COC(C)=O)[C@H](OC(C)=O)C(OC(C)=O)C1OC(C)=O (some centres unmarked) [Compound 30]	2.2 µM	94%				
O=C(CCCn1[se]c2ccccc2c1=O)N[C@@H]1OC(CO)[C@H](O)C(O)C1O (some centres unmarked) [Compound 14]	54 µM	13%	66.4 µM			
O=c1c2ccccc2[se]n1[C@@H]1O[C@H](CO)[C@@H](O[C@@H]2O[C@H](CO)[C@H](O)[C@H](O)[C@H]2O)[C@H](O)[C@H]1O [Compound 5, 2-(1-deoxy-β-D-lactosyl)-1,2-benzisoselenazol-3(2H)-one]				18.1 µM	24.6 µM	
